pIC50: −log10 of the molar value.
The compounds below were run against Bromodomain-containing protein 4 (Homo sapiens, UniProt O60885) (assay: Time Resolved Fluorescence Resonance Energy Transfer (TR-FRET) Assay: The binding of compounds to bromodomain BRD4 (44-168), BRD4 (333-460), and BRD4 (1-477 or 44-460) was assessed using a time resolved fluorescent resonance energy transfer binding assay (1), that measures the binding of a fluorescently labeled probe molecule to the bromodomain protein. The bromodomain protein, fluorescent probe molecule (either a biotinylated histone peptide or a fluorescently labeled small molecule), and dose-responsed test compound are incubated together to reach thermodynamic equilibrium. In the absence of a test compound, the bromodomain and small molecule are bound, resulting in a high fluorescent signal. In the presence of a sufficient concentration of inhibitor, this intercation is disrupted resulting in a loss of fluorescent resonance energy transfer.).
In the case of `Cc1noc(C)c1-c1cc(C(N)=O)c2c(c1)c1ccc(N3CCOCC3)cc1n2CC1CC1`, the pIC50 was > 5.30.
In the case of `Cc1noc(C)c1-c1cc(C(N)=O)c2c(c1)c1ccc(C(C)(C)O)cc1n2S(C)(=O)=O`, the pIC50 was > 7.30.
With `COC1CN(C(=O)c2ccc3c4cc(-c5c(C)noc5C)cc(C(N)=O)c4n(S(=O)(=O)C4CC4)c3c2)C1` the pIC50 was > 7.30.
With `Cc1noc(C)c1-c1cc(C(N)=O)c2c(c1)c1ccc(N3CCCC3=O)cc1n2CC1CC1` the pIC50 was > 7.30.
`Cc1noc(C)c1-c1cc(C(=O)NCC2CC2)c2c(c1)c1c(S(C)(=O)=O)cccc1n2CC1CC1` was tested, and the pIC50 was > 6.30.
In the case of `COC(=O)Nc1ccc2c3cc(-c4c(C)noc4C)cc(C(N)=O)c3n(CC3CC3)c2c1`, the pIC50 was > 6.30.
For `Cc1noc(C)c1-c1cc(C(N)=O)c2c(c1)c1ccc(S(C)(=O)=O)cc1n2S(=O)(=O)C1CC1`, the pIC50 was > 6.30.
For `Cc1noc(C)c1-c1cc(C(N)=O)c2c(c1F)c1ccc(C(=O)N3C[C@@H](C)O[C@@H](C)C3)cc1n2CC1CC1`, the pIC50 was > 7.30.

Source: ChEMBL document CHEMBL5725474, “Carbazole compounds useful as bromodomain inhibitors” (2018)
